Data: paper PMC5271370, “A High-Content Assay Enables the Automated Screening and Identification of Small Molecules with Specific ALDH1A1-Inhibitory Activity” (PLoS ONE, 2017)
Where two headings read alike, the source gives them in different places.

Legend:
Human ALDH1A1 = molecular target: T1, Human ALDH1A1 (Homo sapiens, UniProt P00352); test: 1,536-well enzymatic assay (NADH fluorescence), ALDH1A1; type: biochemical
T1 construct: made in house
T1 sequence (P00352 1-501): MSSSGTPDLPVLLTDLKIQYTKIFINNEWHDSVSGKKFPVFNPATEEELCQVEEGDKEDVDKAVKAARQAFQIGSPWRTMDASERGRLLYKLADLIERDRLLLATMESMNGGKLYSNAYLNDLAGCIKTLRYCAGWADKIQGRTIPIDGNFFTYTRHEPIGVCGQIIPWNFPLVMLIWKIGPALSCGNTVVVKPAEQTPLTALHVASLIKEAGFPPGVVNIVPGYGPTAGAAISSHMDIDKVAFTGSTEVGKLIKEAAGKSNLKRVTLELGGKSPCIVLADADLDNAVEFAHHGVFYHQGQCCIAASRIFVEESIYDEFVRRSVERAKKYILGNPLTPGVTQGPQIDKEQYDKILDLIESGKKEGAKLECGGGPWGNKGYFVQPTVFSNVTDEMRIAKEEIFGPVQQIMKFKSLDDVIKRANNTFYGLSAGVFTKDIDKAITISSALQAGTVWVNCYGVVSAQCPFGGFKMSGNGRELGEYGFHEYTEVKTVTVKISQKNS
Excerpt: (§1) To validate our optimized assay, we assembled a set of 20 previously reported ALDH inhibitors, with varying degrees of target specificity (Table 1 and S4 Fig). […] Briefly, the assay measures the dehydrogenase activity of recombinant human ALDH1A1, ALDH1A2, ALDH1A3, ALDH2 or ALDH3A1 using NAD(P)^+ and either propionaldehyde or benzaldehyde as substrates. An orthogonal resorufin-based assay format was also run with isolated ALDH1A1 to rule out potential false positives due to intrinsic compound fluorescence.
(§2) Human ALDH1A1 and ALDH3A1 were expressed and purified as described elsewhere. Human ALDH2 was purchased from Abcam (ab87415). Human ALDH1A2 and ALDH1A3 were purchased from MyBioSource (MBS1005929; San Diego, CA) and ThermoFisher (11636H07E50), respectively. The inhibitory activity of compounds against ALDHs was measured according to protocols described previously. Briefly, 3 μL of enzyme (final concentrations of 20 nM for ALDH1A1, 50 nM for ALDH1A2, 50 nM for ALDH1A3, 75 nM for ALDH2 and 5 nM for ALDH3A1) in assay buffer (100 mM HEPES pH 7.5 with 0.01% Tween 20) were dispensed into a 1,536-well solid-bottom black plate (Greiner Bio One, Monroe, NC). […] Samples were incubated (room temperature, protected from light) for 15 minutes followed by a 1 μL substrate addition of NAD^+ and Propionaldehyde (final concentrations of 1 mM and 80 μM, respectively) for ALDH1A1, 1A2, 1A3, and ALDH2 or NADP^+ and benzaldehyde (final concentrations of 1 mM and 200 μM, respectively) for ALDH3A1. Plates were centrifuged at 1,000 rpm for 15 seconds, then read in kinetic mode on a ViewLux High-throughput CCD imager (PerkinElmer, Waltham, MA) equipped with standard UV fluorescence optics (340 nm excitation, 450 nm emission) for 5 (ALDH1A1, ALDH1A2, ALDH2, ALDH3A1) or 30 (ALDH1A3) minutes. The change in fluorescence intensity over the 5- or 30-minute reaction period was normalized against no-inhibitor and no-enzyme controls and the resulting percent inhibition data were fitted to a 4-parameter Hill equation. Bay-11 7085 was used as intraplate control. To account for artifacts due to intrinsic compound fluorescence in the above spectrum, compounds were also tested in an orthogonal resorufin assay format with optics of excitation 525 nm/emission 598 nm as described before. The same parameters as the NADH assay were used for the resorufin assay, with the addition of (final) 133 μg/mL diaphorase and 37 μM resazurin to the assay solution. Same controls were used in both formats.

[1] = system: breast cancer cells that express ALDH1A3; parameters: method as in PMID 27592281; details: flow cytometry, at concentrations >10 μM; cited from earlier work
Human ALDH3A1 = molecular target: T2, Human ALDH3A1 (Homo sapiens, UniProt P30838); test: 1,536-well enzymatic assay (NADPH fluorescence), ALDH3A1; type: biochemical
T2 construct: made in house
T2 sequence (P30838 1-453): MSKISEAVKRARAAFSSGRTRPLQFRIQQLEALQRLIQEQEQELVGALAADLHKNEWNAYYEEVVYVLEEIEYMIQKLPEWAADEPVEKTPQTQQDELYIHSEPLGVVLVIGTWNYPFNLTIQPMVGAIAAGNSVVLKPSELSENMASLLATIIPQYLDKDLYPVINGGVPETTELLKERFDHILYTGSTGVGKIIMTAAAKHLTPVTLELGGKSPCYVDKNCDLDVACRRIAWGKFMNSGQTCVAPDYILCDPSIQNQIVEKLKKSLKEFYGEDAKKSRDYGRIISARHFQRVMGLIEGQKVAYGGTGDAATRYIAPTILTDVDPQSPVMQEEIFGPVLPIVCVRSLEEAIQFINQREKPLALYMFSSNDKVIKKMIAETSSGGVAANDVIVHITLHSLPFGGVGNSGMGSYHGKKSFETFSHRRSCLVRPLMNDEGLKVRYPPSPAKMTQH
Excerpt: as §1, §2

ALDH2 = details: reported ALDH target 2; read-out: Reported Biochemical IC50, ALDH2; cited from earlier work
[2] = validation set, 20 nM enzyme, NAD+ and propionaldehyde, read-out: Biochemical IC50 ALDH1A1
[3] = validation set, 5 nM enzyme, NADP+ and benzaldehyde, read-out: Biochemical IC50 ALDH3A1
[4] = hits of dual cell-based screen (Table 2), read-out: Biochemical IC50 ALDH1A1

Molecule | IC50 (Human ALDH1A1; [2]) [nM] | IC50 (Human ALDH3A1; [3]) [nM] | IC50 (ALDH2) [nM] | other results
CC(C)=CCCC(C)=CC=O (mixture of isomers) [Citral] | 10800 |  |  | Reduction of ALDEFLUOR fluorescence [1]: significantly reduced ALDEFLUOR fluorescence
COc1ccc(C(=O)CCN(C)C)cc1F [Aldi-2] | 150 | 40 | 6400 | 
CC(C)(C)c1ccc(S(=O)(=O)/C=C/C#N)cc1 [Bay-11-7085] | 90 | 540 | 34 | 
CCOc1ccc(NCC(=O)Nc2ccc(Cl)cc2C)cc1 [CID 725345] | 770 | 5390 |  | 
COc1cccc2cc(C(=O)CC3(O)C(=O)N(Cc4ccccc4)c4ccccc43)c(=O)oc12 (stereo not shown) [CID 2929292] | 290 | 21500 |  | 
CCN(CC)c1ccc(C=O)cc1 [DEAB, 4-N,N-diethylaminobenzaldehyde] |  | 6050 | 160 | Reduction of ALDEFLUOR fluorescence [1]: significantly reduced ALDEFLUOR fluorescence
O=c1c(-c2ccc(O)cc2)coc2cc(O[C@@H]3O[C@H](CO)[C@@H](O)[C@H](O)[C@H]3O)ccc12 [Daidzin] |  |  | 290 | 
CCN(CC)C(=S)SSC(=S)N(CC)CC [Disulfiram] |  | 1910 |  | 
Cc1cc2c(C(C)C)c(O)c(O)c(C=O)c2c(O)c1-c1c(C)cc2c(C(C)C)c(O)c(O)c(C=O)c2c1O [Gossypol] |  |  |  | IC50 (Human ALDH1A1; Biochemical IC50 ALDH1A1, validation set, 20 nM enzyme, NAD+ and propionaldehyde): 25600 nM; IC50 (Human ALDH3A1): 27000 nM
Nc1ccccc1C(=O)CC(N)C(=O)O (stereo not shown) [Kynurenine] | 40500 |  |  | 
C[S+](=O)([O-])c1ccc(Cn2c3c(c4cc(F)cc(F)c42)CCCC3CC(=O)O)cc1 [L-670596] |  |  |  | IC50 (Human ALDH1A1; [4]): 250 nM
CC(C)N(C(=O)CCl)c1ccccc1 [Propachlor] |  |  |  | IC50 (Human ALDH1A1; [4]): 10 nM; IC50 (Human ALDH3A1; hits of dual cell-based screen (Table 2), read-out: Biochemical IC50 ALDH3A1): 50100 nM
O=C1Nc2ccccc2C1=O [indoline-2,3-dione] | 10 | 2410 |  | 
CVT-10216 | 19100 | 17000 | 29 | 
